Source: patent US11154515B2, “Pharmaceutical compositions comprising cannabidiol and beta-caryophyllene and methods for their use” (priority 2017, dated 2021)
Where “and” joins values, the source holds several entries; their conditions need not be identical. Equal values may be shown once.

Experiments:
[1] = tested on: IL-1α gene expression; test: IL-1α gene expression (RT-qPCR) in LPS-stimulated RAW 264.7 macrophages; format: cell-based, murine; details: for reduction of LPS-induced expression of IL-1α vs untreated, LPS-stimulated controls (FIG. 3A): CBD 0.1 μM, BCP 0.013 μM (p<0.001), combination 0.1 μM + 0.013 μM (7.7:1, p<0.001); for % decrease in IL1α expression: Table 3A experiment; for % Inhibition Alone, IL-1α gene expression: Table 3B/6 experiment
Protocol: RAW 264.7 cells were cultured in Dulbecco's Modified Eagle's Medium (high glucose DMEM, Sigma-Aldrich) supplemented with 10% fetal bovine serum (FBS), 1% L-glutamine, 1% Sodium-pyruvate, 1% Penicillin-Streptomycin (culture medium). The cells were maintained in T75 flasks at 37° C. in humidified air containing 5% CO2 in an incubator and passaged every second-third day.
For drug treatment and LPS stimulation, 200,000 cells/well were seeded in 1.5 mL culture medium in a 6-well plate and incubated to allow attachment to the cell culture plate. After attachment, cells were incubated with various concentrations of CBD (0.1 μM, 0.3 μM, 1 μM, 3 μM, 5 μM, 10 μM, and 30 μM) or BCP (0.001 μM, 0.01 μM, 0.013 μM, 0.1 μM, 0.3 μM, 1 μM, 3 μM, 5 μM, 10 μM, and 100 μM), or vehicle (control) for 2 hrs. After the 2 h incubation, 0.1 μg/mL LPS was added to each well to induce inflammation and cells were incubated with LPS for 24 hrs.
After the 24 h incubation with LPS, the cells were harvested and gene expression of the pro-inflammatory cytokines interleukin (IL)-1α, IL-1β were measured by quantitative real-time polymerase chain reaction (RT-qPCR) on a Roche Light Cycler 480 QPCR System (Roche Applied Sciences) using the 5′ nuclease assay. Total RNA was isolated using TRIzol (LifeTechnologies), DNase treatment was performed according to the manufacturer's protocol, and then 1 μg of total RNA was reverse-transcribed into cDNA using High Capacity cDNA Kit from Life Technologies Corporation. PCR amplification was performed using the TaqMan primers and probes (assay IDs: Mm00439620_m1 for murine Il1a; Mm00434228_m1 for murine Il1b, Mm00446190_m1 for murine 116, Mm00441263_m1 for murine Cxcl15/Il8). Expression of the housekeeping gene, Gapdh, was used (assay ID: […]) as an internal control. The amount of the transcripts was normalized to those of the housekeeping gene using the ΔCT method. Results are expressed as % decrease in the expression levels of IL1α and IL1β in drug-treated, LPS-stimulated groups compared to the expression of each cytokine gene in the vehicle-treated, LPS-stimulated group (regarded as 100%). All experiments were repeated 2-3 times.
For statistical analysis, data were analyzed and graphs were plotted using Origin Pro Plus 6.0 software (Microcal, Northampton, Mass., USA) and Student's two-tailed two samples t-test. p<0.05 values were regarded as significant differences.

[2] = tested on: male NMRI mice, mechanonociceptive threshold of the hind paws; test: Carrageenan-induced mechanical hyperalgesia, mechanonociceptive threshold by dynamic plantar aesthesiometry; format: in vivo, mouse; details: for effect on mechanonociceptive threshold when applied alone: CBD 1 mg/kg, BCP 10 mg/kg; for suppression of the mechanonociceptive threshold by carrageenan: most CBD and BCP single pre-treatments, three hours after carrageenan; for basal mechanonociceptive threshold vs vehicle-treated mice: single doses i.p. (CBD 0.5, 1, 10, 30 mg/kg; BCP 1, 5, 10, 30 mg/kg), 30 min after administration; for carrageenan-induced drop of the mechanonociceptive threshold: 3 hours after carrageenan
Protocol: CBD and BCP solutions (≥80%, FCC, FG) were dissolved in a solution containing 10% Tween 80 and 90% saline (vehicle) and were freshly prepared immediately before use. Mice were treated with drug solutions or vehicle control by intraperitoneal (i.p.) injection at a volume of 0.1 mL/10 g body weight. Acute paw injury was induced by intraplantar injection of 20 μL 3% carrageenan (dissolved in 0.9% NaCl, Sigma Aldrich, St. Louis, Mo., USA) into the right hind paw.
Experiments were performed on 7-16-week-old male NMRI mice (30-50 g) provided with standard chow and water ad libitum. Mice were divided into groups and treated with a single dose of vehicle control (VEH), CBD, BCP, or CBD+BCP delivered i.p. 30 minutes after drug administration, measurements were taken to determine baseline values for mechanonociceptive thresholds and paw volumes. 35 minutes after drug administration, 20 μL of 3% carrageenan was injected intraplantarly (i.pl.) in the right hind paws. 3 hours after carrageenan administration, additional measurements were taken to determine the mechanonociceptive thresholds and paw volumes of the ipsilateral and contralateral paws.
The mechanonociceptive threshold of the hind paws were measured by dynamic plantar aesthesiometry (DPA, Ugo Basile 37400, Comerio, Italy). Mice were placed into plexiglass boxes with a wire grid floor. After acclimation, the plantar surface was touched with a straight metal filament, lifting with increasing upward force (until the animal withdrew his paw or until the maximum force of 10 g was reached (maximum force of 10 g reached within 4 s). Mechanonociceptive thresholds are expressed in gram (g), while mechanical hyperalgesia is represented as a percentage decrease from the initial withdrawal thresholds (i.e., before drug and carrageenan administration) (Bolcskei K. et al., Pain. 2005; 117:368-76).

[3] = Table 4 Exp. 1: CBD 0.1 μM, BCP 0.013 μM, CBD + BCP 0.1 μM + 0.013 μM
[4] = Table 4 Exp. 2: CBD 1 μM, BCP 0.13 μM, CBD + BCP 1 μM + 0.13 μM

SMILES	reduction of LPS-induced expression of IL-1α vs untreated, LPS-stimulated controls (FIG. 3A) [1]	% decrease in IL1α expression ([1]; single agent 0.1 μM)	% decrease in IL1α expression ([1]; single agent 1 μM)	% decrease in IL1α expression ([1]; single agent 5 μM)	% decrease in IL1α expression ([1]; single agent 10 μM)	% Inhibition Alone, IL-1α gene expression ([1]; single agent 0.1 μM)	% Inhibition Alone, IL-1α gene expression ([1]; single agent 0.3 μM)	% Inhibition Alone, IL-1α gene expression ([1]; single agent 1 μM)	% Inhibition Alone, IL-1α gene expression ([1]; single agent 3 μM)	% decrease in IL-1α gene expression [1, 3]	% decrease in IL-1α gene expression [1, 4]	effect on mechanonociceptive threshold when applied alone [2]	suppression of the mechanonociceptive threshold by carrageenan [2]	basal mechanonociceptive threshold vs vehicle-treated mice [2]	further results
C=C1CC/C=C(\C)CC[C@H]2[C@H]1CC2(C)C [BCP, (E)-beta-caryophyllene]	did significantly reduce	2%	18%	26%	0%	1.8 ± 0.2%	5.8 ± 1.2%	0%	0%	32%	0%	negligible effects	only mildly influenced	none of the investigated single doses of CBD and BCP influenced the basal mechanonociceptive threshold	anti-inflammatory actions when applied alone ([1]; IL-1α and IL-1β gene expression): only minor (if any) anti-inflammatory actions; % Inhibition Alone, IL-1α gene expression ([1]; single agent 0.001 μM): 0%; % Inhibition Alone, IL-1α gene expression ([1]; single agent 0.01 μM): 0%; % Inhibition Alone, IL-1α gene expression ([1]; single agent 10 μM): 8.2 ± 4.1%; carrageenan-induced mechanical hyperalgesia ([2]; 30 mg/kg i.p., vs vehicle, p<0.001): significantly reduced
C=C(C)[C@@H]1CCC(C)=C[C@H]1c1c(O)cc(CCCCC)cc1O [CBD, cannabidiol]	did not significantly reduce	13%	4%	10%	21%	0%	3.2 ± 0.2%	34.5 ± 6.2%	55.5 ± 4.7% and 55.5 ± 47%	0%	42%	negligible effects	only mildly influenced	none of the investigated single doses of CBD and BCP influenced the basal mechanonociceptive threshold	concentrations with marked anti-inflammatory effects ([1]; applied alone, IL-1α and IL-1β gene expression): ≥ 1 µM; carrageenan-induced drop of the mechanonociceptive threshold ([2]; 0.5 mg/kg CBD alone): not influenced; carrageenan-induced drop of the mechanonociceptive threshold ([2]; 1 mg/kg CBD alone): not influenced
